This is an account of results in publication PMC10490226, “Synthesis, Characterization, and Anticancer Activity of New N,N′-Diarylthiourea Derivative against Breast Cancer Cells” (Molecules, 2023).

By viability is commonly meant the share of living cells, or the viability signal relative to a control.

Structures are written as SMILES.

Series [1] relates to MCF-7 cells. Description: MTT cytotoxicity test on MCF-7 cells. The format is cell-based. Particulars: Homo sapiens; for IC50: MCF7, 24 h, MTT, 24 h incubation, doses 50 to 1000 µM, mean of three, read-out: IC50 concentration, 50% inhibition of MCF-7 cell viability; for viability at 50 µM / viability at 100 µM / viability at 150 µM / viability at 300 µM / viability at 600 µM / viability at 1000 µM: MCF7, 24 h, read-out: Cell Viability %; for viability at 50 µM: MCF-7, dose 50 µM; for viability at 100 µM: MCF-7, dose 100 µM; for viability at 150 µM: MCF-7, dose 150 µM; for viability at 300 µM: MCF-7, dose 300 µM; for viability at 600 µM: MCF-7, dose 600 µM; for viability at 1000 µM: MCF-7, dose 1000 µM. On the procedure: (§1) The human cells that were utilized in the study included breast cancer cells, specifically the MCF-7 cell lines, along with normal lung cells, specifically the WI38 cell lines. These cell lines were taken from the American Type Culture Collection (ATCC). These cells were maintained in RPMI media with penicillin (100 U/mL), glutamine, 10% fetal bovine serum, and streptomycin ([…]) in a humidified incubator (5% CO2, 37 °C).
As indicated before, the prepared compounds (1–6) were tested for their capacity to inhibit the growth of MCF-7 cancer cells, employing the MTT experiment. In short, 1 × 10^5 of MCF-7 cells/mL were seeded into each well of a 96-well plate and cultured in the growth mixture at 37 °C overnight. The MCF-7 cells were then exposed to the test compounds at 37 °C for 24 h at doses that ranged from 50 to 1000 µM.
The cells were then observed under an inverted microscope (Leica DMI3000B, Mannheim, Germany) for toxicity markers in both the control and treated cells. Following this, the cells were subjected to MTT solution, which caused MTT to be converted into formazan (MTT’s metabolic product), the amount of which was directly proportionate to the total number of viable cells. The formazan crystal was then extracted from the cells by treating them with dimethyl sulfoxide. Microplate reader (Bio-Rad, Hercules, CA, USA) readings were taken at 570 nm, and the percentage of live MCF-7 cells was calculated using the following Formula (1) to indicate the influence of the studied compounds on the proliferation of the tested cells. Cell viability % = (Abs. of tested compound − Abs. of blank)/(Abs. of control − Abs. of blank) × 100 (1)
(§2) The half-suppressing dose (IC50) of the tested compounds was estimated via a dose-response curve following incubation for 24 h. To further determine whether the compounds were safe for use on living tissues, the MTT technique was used at concentrations ranging from 50 to 1000 µM to analyze the influence of the compounds on the viability of healthy WI38 cells. Results are presented as the mean of three independent evaluations of each value.

Series [2] has as its system cleaved caspase-3 (activated caspase-3). Briefly: ELISA quantification of active (cleaved) caspase-3 in MCF-7 cells. Particulars: MCF-7, IC50 dose (338.33 µM), p < 0.001, result in words. The format is cell-based, human. On the procedure: The expression levels of the human active caspase-3 protein when cleaved at Asp175/Ser176 were measured in compound 4-treated MCF-7 cells, using an ELISA method (Invitrogen, Waltham, MA, USA, Catalog # KHO1091). In a nutshell, after incubating the tested compound 4 with MCF-7 cell cultures for 2 h, the supernatant (100 μL) was plated into a 96-well ELISA plate, and the resulting pellets were discarded. Each well was then suspended with 100 μL of a caspase-3 (active) antibody detection solution and left to incubate at room temperature for 1 h. The solution was then decanted from the wells and rinsed four times. Furthermore, HRP-Anti-Rabbit Antibody solution (100 µL) was added to each well, and the plate was incubated for 30 min at room temperature. A stabilized chromogen substrate (100 µL) was transferred to each well, and the plate was allowed to incubate for 30 min at room temperature, in darkness. At 450 nm, optical density readings were taken from the tested plate after adding 100 µL of stop solution to each well. Utilizing a standard curve, the quantity of active caspase-3 protein in the treated MCF-7 cells was calculated.
(In an ELISA, binding on a coated surface is turned into a signal by an enzyme label.)

In series [3] the test system is MCF-7 cells. Description: Lactate dehydrogenase (LDH) leakage test (ELISA). The format is cell-based, human. Particulars: untreated control 85.35 ± 4.2 U/L, p < 0.001. As for the experimental part:
The levels of the released lactate dehydrogenase enzyme (LDH) in compound 4-treated MCF-7 cells were detected using the double-antibody sandwich ELISA technique (SunRed, Cat. N. 201-28-0094) to further estimate the cytotoxic impact of the tested compound 4 against MCF-7 cells. In brief, the compound 4-treated MCF-7 cancer cells were centrifuged, and 40 µL of the resulted supernatant was added to the tested wells. Following this, LDH-antibody (10 µL) and Streptavidin-HRP (50 µL) were transferred to each well for analysis. Subsequently, the 96-well plate was gently shaken, and incubated for 60 min at 37 °C. Following washing, chromogen solution A (50 µL) and chromogen solution B (50 µL) were transferred to each of the test wells, and the plates were left to incubate at 37 Celsius, out of the light, for 10 min. Next, each well was treated with stop solution (50 µL). Finally, the optical density, OD, for the tested plate was measured at 450 nm. Using the prepared standard curve, the concentration of the released LDH was estimated.

The subject of series [4] is MCF-7 cells. Briefly: DNA fragmentation analysis by comet assay. The format is cell-based, human. On the procedure:
Prior to subjecting the MCF-7 cells to compound 4, they were exposed to a caspase-3 inhibitor (Z-DEVD-FMK) in order to assess the potential involvement of caspase-3 activity in the DNA damage induced by compound 4. The occurrence of DNA damage was assessed in MCF-7 cells treated with compound 4 only (IC50 concentration) and MCF-7 cells that were pretreated with Z-DEVD-FMK (50 μM) for 1 h and then treated with compound 4 (IC50 concentration) for 24 h, utilizing the comet test. Fragmentation causes the broken DNA to be separated from the healthy cellular DNA, generating a comet tail that can be identified under a fluorescence microscope. Comet parameters were calculated using TriTek Comet Score™ software (TriTek Corp., Herndon, VA, USA), following a computerized image analysis system that recorded 100 photographs of randomly shaped comets for each slide. The tail moment and tail DNA, two often-employed markers, were combined for data finding. The Olive tail moment (OTM) has been honed to be the most precise method for assessing DNA damage. In accordance with the following Equation (2), its value can be determined by the tail’s DNA concentration and DNA mobility. OTM = quantity of tail moment × quantity of tail DNA/100(2)

Another series concerns wi38 cells. Description: MTT viability test on normal WI38 lung cells. The format is cell-based, human. On the procedure:
as §1, §2

The subject of a further series is breast cancer cells. Also on record: method as in doi:10.31788/RJC.2022.1536976. Particulars: read-out: IC50 concentration against the viability of breast cancer cells; cited from earlier work.
Setting [5] is: IC50 concentration 24 h, with caspase-3 inhibitor Z-DEVD-FMK (50 μM, 1 h) pretreatment.

On to `CCCCCCCCCCCCCCCCOc1ccc(NC(=O)Nc2ccccc2)cc1` [Compound 3, 1-(4-(hexadecyloxy)phenyl)-3-phenylurea], for which, in the series with MCF-7 cells [1], the IC50 was found to be 619.7 ± 4.33 µM, the viability at 50 µM worked out at 97.3 ± 2.45%, the viability at 100 µM is 93.6 ± 1.82% and the viability at 150 µM was found to be 80.7 ± 2.44%. Besides, in the series on MCF-7 cells [1], the viability at 300 µM turned out to be 64.9 ± 1.66%, the viability at 600 µM was determined as 56.7 ± 2.55% and the viability at 1000 µM amounted to 20.9 ± 2.75%.

Take `CCCCCCOc1ccc(NC(=O)Nc2ccccc2)cc1` [Compound 1, 1-(4-(hexyloxy)phenyl)-3-phenylurea]: in the series on MCF-7 cells [1], the IC50 was 726.6 ± 1.29 µM, the viability at 50 µM came out at 98.6 ± 2.21%, the viability at 100 µM worked out at 87.3 ± 1.34% and the viability at 150 µM worked out at 80.6 ± 2.76%. In the series on MCF-7 cells [1], the viability at 300 µM came out at 67.2 ± 1.13%, the viability at 600 µM came to 57.2 ± 2.44% and the viability at 1000 µM turned out to be 36.4 ± 1.34%.

Take `CCCCCCCCOc1ccc(NC(=S)Nc2ccc(F)cc2)cc1` [Compound 5, 1-(4-fluorophenyl)-3-(4-(octyloxy)phenyl)thiourea]: in the series on MCF-7 cells [1], the IC50 is 567.8 ± 4.28 µM, the viability at 50 µM turned out to be 98.6 ± 2.53%, the viability at 100 µM turned out to be 96.5 ± 2.33% and the viability at 150 µM was 79.5 ± 1.92%. Further, in the series on MCF-7 cells [1], the viability at 300 µM was determined as 62 ± 1.84%, the viability at 600 µM is 45.4 ± 2.74% and the viability at 1000 µM turned out to be 18 ± 1.45%.

For `CCCCCCOc1ccc(NC(=S)Nc2ccc(F)cc2)cc1` [Compound 4, 1-(4-fluorophenyl)-3-(4-(hexyloxy)phenyl)thiourea], the “Cleaved caspase-3 (activated caspase-3) levels versus untreated cells” value in series [2] is given as “significantly elevated”. For the same compound, in the series with MCF-7 cells [1], the IC50 is 338.3 ± 1.52 µM, the viability at 50 µM was determined as 100 ± 2.24%, the viability at 100 µM is 90.2 ± 2.78% and the viability at 150 µM came out at 48.1 ± 1.15%. In the series on MCF-7 cells [1], the viability at 300 µM is 21.2 ± 1.66%, the viability at 600 µM worked out at 18.3 ± 1.92% and the viability at 1000 µM came to 7.28 ± 2.56%. Besides, the “LDH levels in treated MCF-7 cells” value in the series with MCF-7 cells [3] is 521.77 ± 30.8 U/L. In the series with MCF-7 cells [4] (setting [5]), the “% DNA in Tail” value was found to be 14.37 ± 1.33 %, the “Olive Tail Moment (OTM)” value is 1.87 ± 0.34, the “Tail Length (PX)” value came out at 7.13 ± 2.21 PX and the “Tail Moment” value is reported as 1.04 ± 0.04. Moreover, in the series on MCF-7 cells [4] (IC50 concentration, without caspase-3 inhibitor pretreatment, control 0.22 ± 0.02), the “Tail Moment” value is recorded as 1.72 ± 0.05. Besides, the “Olive Tail Moment (OTM)” value in the series with MCF-7 cells [4] (IC50 concentration, without caspase-3 inhibitor pretreatment, control 0.55 ± 0.02) is 2.38 ± 0.06. Besides, the “% DNA in Tail” value in the series on MCF-7 cells [4] (IC50 concentration, without caspase-3 inhibitor pretreatment, control 3.11 ± 1.73) worked out at 17.26 ± 2.34 %. In the series with MCF-7 cells [4] (IC50 concentration, without caspase-3 inhibitor pretreatment, control 7.52 ± 1.82), the “Tail Length (PX)” value is on record as 6.67 ± 1.94 PX. Moreover, the IC50 in the series with wi38 cells (Homo sapiens, WI-38, doses 50 to 1000 µM) turned out to be 1463 ± 4.78 µM. In addition, the “Cytotoxic effects on normal human lung cells (wi38 cells)” value in the series with wi38 cells (result in words) is listed as “no cytotoxic effects”.

On to `C=CCNC(=S)NC(=O)c1ccc([N+](=O)[O-])cc1` [4-nitrobenzoyl-3-allylthiourea], for which the IC50 in the series on breast cancer cells is 225 µM.

For the compound `CCCCCCCCCCCCCCCCOc1ccc(NC(=S)Nc2ccc(F)cc2)cc1` [Compound 6, 1-(4-fluorophenyl)-3-(4-(hexadecyloxy)phenyl)thiourea], in the series on MCF-7 cells [1], the IC50 was 711.9 ± 2.5 µM, the viability at 50 µM worked out at 96.4 ± 2.63%, the viability at 100 µM turned out to be 91.7 ± 2.47% and the viability at 150 µM amounted to 84.1 ± 1.83%. Also, in the series on MCF-7 cells [1], the viability at 300 µM worked out at 79.2 ± 2.64%, the viability at 600 µM amounted to 46.9 ± 2.34% and the viability at 1000 µM was 36.7 ± 1.66%.

Turning to `CCCCCCCCOc1ccc(NC(=O)Nc2ccccc2)cc1` [Compound 2, 1-(4-(octyloxy)phenyl)-3-phenylurea], in the series with MCF-7 cells [1], the IC50 stood at 527.2 ± 1.28 µM, the viability at 50 µM worked out at 98.8 ± 2.26%, the viability at 100 µM came to 88.6 ± 2.22% and the viability at 150 µM was found to be 72.2 ± 2.13%. In the series with MCF-7 cells [1], the viability at 300 µM worked out at 49.9 ± 1.77%, the viability at 600 µM worked out at 38.3 ± 1.97% and the viability at 1000 µM is 23.3 ± 2.33%.
